Experiments:
[1] = tested on: 2LMP human breast cancer xenografts; test: 2LMP breast cancer xenografts in athymic nude mice; type: in vivo
Protocol: Nude mice were inoculated s.c. with the human breast cancer cell line, 2LMP. Treatment with i.p. doses of 200 μg of 2E12 occurred on days 7, 10, 14, 17, 21, and 24 after tumor cell injection. Animals received i.v. adriamycin (doxorubicin) (6 mg/kg) on days 8, 12, and 16.
Athymic nude mice were injected s.c. with 3×10^7 2LMP cells. […] The growth of tumors was monitored over time. […] Tumor size and regression rates were determined.
Data from 6 independent experiments were analyzed by individual experiment. Treatment combinations were compared with respect to in vivo anti-tumor efficacy, i.e., inhibition of tumor growth, which was measured as three endpoints; extension of tumor doubling times, percentage of tumor regressions, and growth rates over time. The actual number of days at which the tumor doubled in surface area (product of two diameters) relative to baseline on day 7 after tumor cell injection was used in the doubling time analysis. The nonparametric Kruskal-Wallis test was used for median tumor doubling time comparisons between treatments. Fisher's exact test was used to compare the proportions of tumor regressions and relapse-free regressions across treatment groups. To determine if any combination therapy produced significant synergistic inhibition of tumor growth, i.e., more than additive, the growth curves from the serial area measurements were compared using a linear mixed model approach over the first 3 weeks after start of therapy (Lindsey, J. K. Models for Repeated Measurements, pp. 100-142, Oxford, 1993). To test for synergistic effects of the combination therapies, an interaction term was included in the model. If the interaction term was significant and the effect was inhibition of growth at a rate greater than additive then the interaction was considered synergistic.
A total of 166 animals, 10 treatment groups, and 6 independent experiments were included in the aggregate analysis. Treatment combinations were compared with respect to in vivo anti-tumor efficacy. The median tumor doubling times were analyzed using the Kruskal-Wallis test and Fisher's exact test was used to compare the proportions of tumor regressions and relapse-free regressions across treatment groups.

2LMP xenografts = test: TUNEL analysis of apoptosis in xenografts; type: in vivo, athymic nude mice; details: day 14; untreated 1%
Protocol: One group of mice was untreated. The xeno grafts were dissected for the study of apoptosis on day 14 after tumor cell injection. The reason for the substantial reduction in treatment intensity compared to our standard treatment protocol was to allow adequate tumor tissue for analysis on day 14. Tunel assay for apoptosis in tumor xenografts was performed as follows. Five-micron paraffin sections of tissue were mounted on Superfrost/Plus slides and heated at 58° C. for 1 h. Tissue sections were deparaffinized in three changes of xylene and rehydrated with one change of absolute ethanol, 95% ethanol, and 70% ethanol, each in 5-min increments. Then, the sections were placed in Tris-buffered saline (0.5M Tris base, 0.15 M NaCl, 0.0002% Triton X-100, pH 7.6). Apoptotic nuclei were detected using an Apop Tag Peroxidase kit (Intergen, Purchase, N.Y.). Proteinase K (20 μg/ml in distilled deionized H2O) was added to the tissue specimens and incubated at room temperature for 15 min. Endogenous peroxidases were quenched with an aqueous solution of 3% hydrogen peroxide for 5 min. […] Approximately 10 random fields were evaluated for percentage of Tunel stained and percentage of intensely stained apoptotic bodies throughout the tissue.

[2] = tested on: Human prostate cancer cell line PC-3; test: Combination study with Paclitaxel, XTT; type: cell-based; details: 24 h
Protocol: Human prostate cancer cell line PC-3 is obtained from American Tissue Culture Collection (ATCC) and maintained in F-12K Nutrient Mixture (21127-022, Gibco BRL) containing 10% fetal bovine serum (FBS, Hyclone), 1% L-Glutamine-200 mM (25030-149, Gibco BRL) and 0.5% Penicillin Streptomycin Solution (P-7539, Sigma). RPMI1640 medium (MED-008, IWAKI) supplemented with 10% FBS and 0.5% Penicillin Streptomycin Solution is used in the following experiment. Exponentially growing PC-3 cells are collected by trypsinization and washed twice with fresh medium. The cells are then counted, resuspended in fresh medium at a density of 5×10^4 cells/ml and distributed in triplicate into flat-bottomed 96 well plates (3598, Coming-Coster) in a total volume of 100 μl/well one day before the start of the experiment. A representative anti-cancer drug, Paclitaxel (169-18611, Wako) dissolved in dimethylsulfoxide (10 mg/ml) is diluted in fresh medium and then added to the 96-well plates containing the cells at 50 μl/well. The final concentrations of dimethylsulfoxide are less than 0.1%. […] After incubation for a further 24 hr, 50 μl of Minimum Essential Medium (11095-098, Gibco BRL) containing 1 mg/ml of XTT and […] of PMS is added to the wells and the plates are incubated for 6 hr. OD450 is then measured by SPECTRA MAX 250 (Molecular Devices) and the cell viability is calculated as follows.

Jurkat cells = test: Apoptosis-inducing activity of humanized antibody, XTT; type: cell-based, human; details: 12 hours
Protocol: Jurkat cells cultured in RPM11640 medium with 10% FCS (Gibco BRL) at 37° C. for 3 days in the presence of 5% CO2 are dispensed into each well of a 96-well microplate (Sumitomo Bakelite) at 50 μl per well. […] Each of the solutions of the expression products thus adjusted to 100 ng/ml is used to produce serial dilutions by repeating serial 2-fold dilution with RPM1640 containing 10% FCS. […] After reacting at 37° C. for 12 hours, 50 μl of 25 μM PMS (phenazine methosulfate; Sigma Chemical Co.) containing 1 mg/ml XTT (2,3-bis[2-methoxy-4-nitro-5-sulfophenyl]-2H-tetrazolium-5-carboxyaniride inner salt; Sigma Chemical Co.) is added (final concentrations of 250 μg/ml for XTT and 5 μM for PMS). After incubating for 3 hours, the absorbance at 450 nm of each well is measured to calculate the cell viability by using the reduction ability of mitochondria as the index.
The viability of the cells in each well is calculated according to the following formula: Viability (%)=100×(a−b)/(c−b) wherein “a” is the measurement of a test well, “b” is the measurement of a well with no cells, and “c” is the measurement of a well with no antibody added.
Jurkat cells cultured in RPMI1640 medium with 10% FCS (Gibco BRL) at 37° C. for 3 days in the presence of 5% CO2 are dispensed into each well of a 96-well microplate (Sumitomo Bakelite) at 50 μl per well. […]

[3] = aggregate, number of animals (%)

| Molecule | Complete Regressions No relapse (%) [1, 3] | Complete Regressions Total (%) [1, 3] | complete regressions of tumor ([1]; individual experiments (FIG. 25-27), animals) | intense TUNEL stained cells (2LMP xenografts) [%] | viability at 0.0001 µg/mL [2] [%] | apoptosis-inducing activity (Jurkat cells) |
| --- | --- | --- | --- | --- | --- | --- |
| CC(=O)O[C@H]1C(=O)[C@@]2(C)[C@H]([C@H](OC(=O)c3ccccc3)[C@]3(O)C[C@H](OC(=O)[C@H](O)[C@@H](NC(=O)c4ccccc4)c4ccccc4)C(C)=C1C3(C)C)[C@]1(OC(C)=O)CO[C@@H]1C[C@@H]2O [Paclitaxel] | 0 | 0 | none | 2 | > 40 |  |
| humanized TRA-8: humanized TRA-8, cotransfection of pHB14-1 and pSR/M2-1 (H2 type heavy chain, LM2 light chain) (antibody) VH: EVMLVESGGGLVQPGGSLRLSCAASGFTFSSYVMSWVRQAPGKGLEWVATISSGGSYTYYPDSVKGRFTISRDNAKNTLYLQMNSLRAEDTAVYYCARRGDSMITTDYWGQGTLVTVSS light: DIVMTQSPSSLSASVGDRVTITCKASQDVGTAVAWYQQKPGKAPKLLIYWASTRHTGVPSRFSGSGSGTDFTLTISSLQPEDFATYYCQQYSSYRTFGQGTKVEIKRTVAAPSVFIFPPSDEQLKSGTASVVCLLNNFYPREAKVQWKVDNALQSGNSQESVTEQDSKDSTYSLSSTLTLSKADYEKHKVYACEVTHQGLSSPVTKSFNRGEC |  |  |  |  |  | induce apoptosis |
